Columns and labels:
[1] = test system: 24-hydroxylase (24Ohase) gene promoter; assay: In vitro transcription assay (luciferase reporter in ROS 17/2.8 bone cells); assay type: cell-based; conditions: FIG. 3; for EC50: ROS 17/2.8 cells, 24Ohase promoter-luciferase, 16 h, read-out: EC50, transcriptional activity in bone cells
Procedure: Transcription activity was measured in ROS 17/2.8 (bone) cells that were stably transfected with a 24-hydroxylase (24Ohase) gene promoter upstream of a luciferase reporter gene (Arbour et al., 1998). Cells were given a range of doses. Sixteen hours after dosing the cells were harvested and luciferase activities were measured using a luminometer.
RLU=Relative Luciferase Units.

[2] = test system: Human promyelocytic leukemia (HL60) cells; assay: HL-60 differentiation (nitro blue tetrazolium reduction); assay type: cell-based; conditions: FIG. 2; for EC50: HL60 cells, 4 days, NBT reduction
Procedure: The study drugs were dissolved in ethanol and the concentrations determined using UV spectrophotometry. Serial dilutions were prepared so that a range of drug concentrations could be tested without changing the final concentration of ethanol (≦0.2%) present in the cell cultures.
Human promyelocytic leukemia (HL60) cells were grown in RPMI-1640 medium containing 10% fetal bovine serum. The cells were incubated at 37° C. in the presence of 5% CO2.
HL60 cells were plated at 1.2×10^5 cells/ml. Eighteen hours after plating, cells in duplicate were treated with drug. Four days later, the cells were harvested and a nitro blue tetrazolium reduction assay was performed (Collins et al., 1979; J. Exp. Med. 149:969-974). The percentage of differentiated cells was determined by counting a total of 200 cells and recording the number that contained intracellular black-blue formazan deposits. Verification of differentiation to monocytic cells was determined by measuring phagocytic activity (data not shown).

[3] = Bone calcium mobilization (serum calcium) in vitamin D-deficient rats; assay type: in vivo, rat
Procedure: (§1) Male, weanling Sprague-Dawley rats were placed on Diet 11 (0.47% Ca) diet +AEK for one week followed by Diet 11 (0.02% Ca) +AEK for 3 weeks. The rats were then switched to a diet containing 0.47% Ca for one week followed by two weeks on a diet containing 0.02% Ca. Dose administration began during the last week on 0.02% calcium diet. Four consecutive ip doses were given approximately 24 hours apart. Twenty-four hours after the last dose, blood was collected from the severed neck and the concentration of serum calcium determined as a measure of bone calcium mobilization. The first 10 cm of the intestine was also collected for intestinal calcium transport analysis using the everted gut sac method.

[4] = Intestinal calcium transport (everted gut sac) in vitamin D-deficient rats; assay type: in vivo, rat; conditions: for Intestinal calcium transport: everted gut sac, vitamin D-deficient rats, FIG. 5
Procedure: as §1

[5] = target: T1, full-length recombinant rat vitamin D receptor (Rattus norvegicus, UniProt P13053); assay: Vitamin D receptor binding (competition with [3H]-1,25(OH)2D3); conditions: full-length recombinant rat VDR; FIG. 1
T1 construct: Full-length recombinant rat receptor was expressed in E. coli; histidine tag (C); made in house; host or cells: E. coli BL21 (DE3) Codon Plus RIL
T1 sequence (P13053 1-423): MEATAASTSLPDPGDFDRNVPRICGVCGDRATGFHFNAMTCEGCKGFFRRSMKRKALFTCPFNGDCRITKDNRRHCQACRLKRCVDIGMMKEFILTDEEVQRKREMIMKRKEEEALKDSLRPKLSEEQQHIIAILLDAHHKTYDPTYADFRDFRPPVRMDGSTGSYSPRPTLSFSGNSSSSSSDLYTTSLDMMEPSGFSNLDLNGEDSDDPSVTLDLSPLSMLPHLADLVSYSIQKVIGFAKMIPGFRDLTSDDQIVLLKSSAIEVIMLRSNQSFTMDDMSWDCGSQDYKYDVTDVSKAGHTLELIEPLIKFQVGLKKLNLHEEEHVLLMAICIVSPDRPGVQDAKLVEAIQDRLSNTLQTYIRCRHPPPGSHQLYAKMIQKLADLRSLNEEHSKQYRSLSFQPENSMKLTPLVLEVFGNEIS
Procedure: Full-length recombinant rat receptor was expressed in E. coli BL21 (DE3) Codon Plus RIL cells and purified to homogeneity using two different column chromatography systems. The first system was a nickel affinity resin that utilizes the C-terminal histidine tag on this protein. The protein that was eluted from this resin was further purified using ion exchange chromatography (S-Sepharose Fast Flow). Aliquots of the purified protein were quick frozen in liquid nitrogen and stored at −80° C. until use. For use in binding assays, the protein was diluted in TEDK50 (50 mM Tris, 1.5 mM EDTA, pH7.4, 5 mM DTT, 150 mM KCl) with 0.1% Chaps detergent. The receptor protein and ligand concentration were optimized such that no more than 20% of the added radiolabeled ligand was bound to the receptor.
Radiolabeled and unlabeled ligands were added to 100 mcl of the diluted protein at a final ethanol concentration of ≦10%, mixed and incubated overnight on ice to reach binding equilibrium. The following day, 100 mcl of hydroxylapatite slurry (50%) was added to each tube and mixed at 10-minute intervals for 30 minutes. […] After the final wash, the pellets were transferred to scintillation vials containing 4 ml of Biosafe II scintillation cocktail, mixed and placed in a scintillation counter. Total binding was determined from the tubes containing only radiolabeled ligand.

Binding to vitamin D receptor compared to 1,25-(OH)2D3 (in words) [5]	Ki [5] [nM]	EC50 ([2]; Homo sapiens, HL-60, 96 h) [nM]	SMILES	EC50 [1] [nM]	EC50 [2] [nM]	Serum calcium levels (bone calcium mobilization) ([3]; at the dosage tested, vitamin D-deficient rats on low calcium diet (0.02%), FIG. 4)	Intestinal calcium transport ([4]; 260 pmol/day)	Transcriptional activity in bone cells compared to 1α,25-dihydroxyvitamin D3 (in words) [1]	HL-60 cell differentiation potency compared to 1,25(OH)2D3 (in words) [2]	Bone calcium mobilization (serum calcium) ([3]; 260 pmol/day ip for 4 consecutive days, vitamin D-deficient rats on low calcium diet (0.02%), FIG. 4)	Bone calcium mobilization (serum calcium) ([3]; 2340 pmol/day ip for 4 consecutive days, vitamin D-deficient rats on low calcium diet (0.02%), FIG. 4)	Bone calcium mobilization activity compared to 1,25(OH)2D3 (in words) ([3]; FIG. 4, overall)	Intestinal calcium transport ([4]; 2340 pmol/day)	Stimulating intestinal calcium transport compared to 1,25(OH)2D3 (in words) ([4]; FIG. 5, overall)
–	–	–	C=C1/C(=C\C=C2/CCC[C@]3(C)[C@@H]([C@H](C)CCCC(C)(C)O)CC[C@@H]23)C[C@@H](O)C[C@@H]1O [1,25(OH)2D3, 1α,25-dihydroxyvitamin D3, reference compound]	0.2	20	increased serum calcium levels	promotes a significant increase	–	–	–	–	–	–	–
bound equally well	0.08	50	CCC(C)(C)C1CCC2C(=CC=C3CC(O)C(=CCCO)C(O)C3)CCCC21C (stereo not drawn) [20DC, 1α-hydroxy-2-[3′-hydroxypropylidene]-20-methyl-19,24,25,26,27-pentanorvitamin D3]	2	–	–	does not promote intestinal calcium transport	about the same transcriptional activity	about as potent as 1,25(OH)2D3	did not result in mobilization of bone calcium	without any substantial effect	very little bone calcium mobilization activity	does not promote intestinal calcium transport	very little activity

— patent publication US7763598B2, “1α-hydroxy-2-(3′-hydroxypropylidene)-19-nor-vitamin D compounds with a 1,1-dimethylpropyl side chain” (Wisconsin Alumni Research Foundation, priority 2006, dated 2010)
